Reference: patent US10214542B2, “Modified macrocyclic compounds” (BAYER PHARMA AKTIENGESELLSCHAFT, priority 2015, dated 2019)

What was measured:
HeLa cells = assay: Proliferation assay, crystal violet (Method 3); format: cell-based, human; conditions: Homo sapiens, 96 h, 4 days, read-out: Inhibition of HeLa cell proliferation IC50
Procedure: Cultivated tumour cells (HeLa, human cervical tumour cells, ATCC CCL-2; NCI-H460, human non-small cell lung carcinoma cells, ATCC HTB-177; DU 145, hormone-independent human prostate carcinoma cells, ATCC HTB-81; HeLa-MaTu-ADR, multidrug-resistant human cervical carcinoma cells, EPO-GmbH Berlin; Caco-2, human colorectal carcinoma cells, ATCC HTB-37; B16F10, mouse melanoma cells, ATCC CRL-6475) were plated at a density of 5,000 cells/well (DU145, HeLa-MaTu-ADR), 3,000 cells/well (NCI-H460, HeLa), 1,500 cells/well (Caco-2), or 1,000 cells/well (B16F10) in a 96-well multititer plate in 200 μL of their respective growth medium supplemented 10% fetal calf serum. After 24 hours, the cells of one plate (zero-point plate) were stained with crystal violet (see below), while the medium of the other plates was supplemented with the test substances in various concentrations (0 μM, as well as in the range of 0.0001-10 μM; the final concentration of the solvent dimethyl sulfoxide was adjusted to 0.1%) using a Hewlett-Packard HP D300 Digital Dispenser. The cells were incubated for 4 days in the presence of test substances. Cell proliferation was determined by staining the cells with crystal violet: the cells were fixed by adding 20 μl/measuring point of an 11% glutaric aldehyde solution for 15 minutes at room temperature. After three washing cycles of the fixed cells with water, the plates were dried at room temperature. The cells were stained by adding 100 μl/measuring point of a 0.1% crystal violet solution (pH 3.0). After three washing cycles of the stained cells with water, the plates were dried at room temperature. The dye was dissolved by adding 100 μl/measuring point of a 10% acetic acid solution. The extinction was determined by photometry at a wavelength of 595 nm. The change of cell number, in percent, was calculated by normalization of the measured values to the extinction values of the zero-point plate (=0%) and the extinction of the untreated (0 μm) cells (=100%). The IC50 values (inhibitory concentration at 50% of maximal effect) were determined by means of a 4 parameter fit.

CDK2/CycE = molecular target: T1, CDK2/CycE (Homo sapiens, UniProt P24941); assay: CDK2/CycE high ATP kinase assay (TR-FRET, Method 2b); format: biochemical; conditions: 2 mM ATP
T1 construct: GST; purchased ProQinase GmbH (Freiburg, Germany); host or cells: insect cells (Sf9)
Procedure: 2b. CDK2/CycE High ATP Kinase Assay:
CDK2/CycE-inhibitory activity of compounds of the present invention at 2 mM adenosine-tri-phosphate (ATP) was quantified employing the CDK2/CycE TR-FRET (TR-FRET=Time Resolved Fluorescence Resonance Energy Transfer) assay as described in the following paragraphs.
Recombinant fusion proteins of GST and human CDK2 and of GST and human CycE, expressed in insect cells (Sf9) and purified by Glutathion-Sepharose affinity chromatography, were purchase from ProQinase GmbH (Freiburg, Germany). As substrate for the kinase reaction biotinylated peptide biotin-Ttds-YISPLKSPYKISEG (C-terminus in amid form) was used which can be purchased e.g. from the company JERINI peptide technologies (Berlin, Germany).
For the assay 50 nl of a 100 fold concentrated solution of the test compound in DMSO was pipetted into a black low volume 384 well microtiter plate (Greiner Bio-One, Frickenhausen, Germany), 2 μl of a solution of CDK2/CycE in aqueous assay buffer [50 mM Tris/HCl pH 8.0, 10 mM MgCl2, 1.0 mM dithiothreitol, 0.1 mM sodium ortho-vanadate, 0.01% (v/v) Nonidet-P40 (Sigma)] were added and the mixture was incubated for 15 min at 22° C. to allow pre-binding of the test compounds to the enzyme before the start of the kinase reaction. Then the kinase reaction was started by the addition of 3 μl of a solution ATP (3.33 mM=>final conc. in the 5 μl assay volume is 2 mM) and substrate (1.25 μM=>final conc. in the 5 μl assay volume is 0.75 μM) in assay buffer and the resulting mixture was incubated for a reaction time of 25 min at 22° C. The concentration of CDK2/CycE was adjusted depending of the activity of the enzyme lot and was chosen appropriate to have the assay in the linear range, typical concentrations were in the range of 15 ng/ml. The reaction was stopped by the addition of 5 μl of a solution of TR-FRET detection reagents (0.2 μM streptavidine-XL665 [Cisbio Bioassays, Codolet, France] and 1 nM anti-RB(pSer807/pSer811)-antibody from BD Pharmingen [#558389] and 1.2 nM LANCE EU-W1024 labeled anti-mouse IgG antibody [Perkin-Elmer, product no. AD0077, as an alternative a Terbium-cryptate-labeled anti-mouse IgG antibody from Cisbio Bioassays can be used]) in an aqueous EDTA-solution (100 mM EDTA, 0.2% (w/v) bovine serum albumin in 100 mM HEPES pH 7.5).
The resulting mixture was incubated 1 h at 22° C. to allow the formation of complex between the phosphorylated biotinylated peptide and the detection reagents. Subsequently the amount of phosphorylated substrate was evaluated by measurement of the resonance energy transfer from the Eu-chelate to the streptavidine-XL. Therefore, the fluorescence emissions at 620 nm and 665 nm after excitation at 350 nm were measured in a TR-FRET reader, e.g. a Rubystar (BMG Labtechnologies, Offenburg, Germany) or a Viewlux (Perkin-Elmer). The ratio of the emissions at 665 nm and at […] was taken as the measure for the amount of phosphorylated substrate. The data were normalised (enzyme reaction without inhibitor=0% inhibition, all other assay components but no enzym=100% inhibition).

SMILES | IC50 (HeLa cells) | IC50 (CDK2/CycE)
CC(C)(C)OC(=O)N=S(C)(=O)Cc1cc2cc(c1)OCCCCSc1cc(F)ccc1-c1nc(ncc1F)N2 (racemic) [Example 21, (rac)-tert-butyl[{[16,20-difluoro-2,3,4,5-tetrahydro-12H-17,13-(azeno)-11,7-(metheno)-6,1,12,14-benzoxathiadiazacyclononadecin-9-yl]methyl}(methyl)oxido-λ^6-sulfanylidene]carbamate] | 0.327 µM | 11.9 µM
CS(=N)(=O)Cc1cc2cc(c1)OCCCCSc1cc(F)ccc1-c1nc(ncc1F)N2 (racemic) [Example 22, (rac)-16,20-difluoro-9-[(S-methylsulfonimidoyl)methyl]-2,3,4,5-tetrahydro-12H-17,13-(azeno)-11,7-(metheno)-6,1,12,14-benzoxathiadiazacyclononadecine] | 0.102 µM | 1.1 µM
CSCc1cc2nc(c1)OCCCCCc1cc(F)ccc1-c1cc(ncc1F)N2 [Example 18, 2,19-difluoro-9-[(methylsulfanyl)methyl]-14,15,16,17-tetrahydro-6H,13H-7,11-(azeno)-5,1-(metheno)-12,4,6-benzoxadiazacyclononadecine] | > 10 µM | > 20 µM

The remaining molecules from weak to strong by IC50 (HeLa cells), led by results:

IC50 (HeLa cells) | IC50 (CDK2/CycE) | SMILES
9.28 µM | > 20 µM | CSCc1cc2nc(c1)OCCCCc1cc(F)ccc1-c1cc(ncc1F)N2 [Example 4, 2,18-Difluoro-9-[(methylsulfanyl)methyl]-13,14,15,16-tetrahydro-6H-7,11-(azeno)-5,1-(metheno)-12,4,6-benzoxadiazacyclooctadecine]
1 µM | 1.41 µM | C[S+]([O-])Cc1cc2nc(c1)OCCCCCc1cc(F)ccc1-c1cc(ncc1F)N2 (racemic) [Example 19, (rac)-2,19-difluoro-9-[(methylsulfinyl)methyl]-14,15,16,17-tetrahydro-6H,13H-7,11-(azeno)-5,1-(metheno)-12,4,6-benzoxadiazacyclononadecine]
0.408 µM | 0.921 µM | CS(=N)(=O)Cc1cc2nc(c1)OCCCCCc1cc(F)ccc1-c1cc(ncc1F)N2 (racemic) [Example 20, (rac)-2,19-difluoro-9-[(S-methylsulfonimidoyl)methyl]-14,15,16,17-tetrahydro-6H,13H-7,11-(azeno)-5,1-(metheno)-12,4,6-benzoxadiazacyclononadecine]
0.031 µM | 0.622 µM | CN1CCCCNc2cc(F)ccc2-c2nc(ncc2F)Nc2cc(CS(C)(=N)=O)cc1c2.O=CO (racemic) [Example 17, (rac)-16,20-difluoro-6-methyl-9-[(S-methylsulfonimidoyl)methyl]-1,2,3,4,5,6-hexahydro-12H-17,13-(azeno)-11,7-(metheno)-1,6,12,14-benzotetraazacyclononadecine; salt with formic acid]
0.028 µM | 0.531 µM | CSCc1cc2nc(c1)Nc1cc(c(F)cn1)-c1ccc(F)cc1OCCCN2 [Example 1, 15,19-Difluoro-8-[(methylsulfanyl)methyl]-2,3,4,5-tetrahydro-11H-10,6-(azeno)-12,16-(metheno)-1,5,11,13-benzoxatriazacyclooctadecine]
